Consider 56 cell lines from the supplement of paper PMC9663587.
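Note: breast cancer and non-malignant breast epithelial cell lines, Deep Dye Drop or Dye Drop imaging, nine half-log doses, GR normalized to time-zero plates and DMSO-only controls.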

Compound in one assay: COc1cc([C@@H]2c3cc4c(cc3[C@@H](O[C@@H]3O[C@@H]5CO[C@@H](C)O[C@H]5[C@H](O)[C@H]3O)[C@H]3COC(=O)[C@H]23)OCO4)cc(OC)c1O [Etoposide]
Take MCF10A: the “GR50, 72 h” value was 0.284 µM.
With MDAMB157, the “GR50, 72 h” value stood at 0.112 µM.
As for MDAMB231, the “GR50, 72 h” value amounted to 0.704 µM.
On the same count and under the same terms, next, MDAMB361: 1.19 µM.
The same measure, in the same setting: the figure for MDAMB436 is 0.26 µM.
In the case of MDAMB453, the “GR50, 72 h” value stood at 0.383 µM.
Turning to MDAMB468, the “GR50, 72 h” value is 0.488 µM.
Still for that read-out and setting: the figure for PDX1258 is 0.317 µM.
Take PDX1328: the “GR50, 72 h” value stood at 0.805 µM.
PDXHCI002: the “GR50, 72 h” value amounted to 0.182 µM.
Take SKBR3: the “GR50, 72 h” value was found to be 0.398 µM.
Still for that read-out and setting: the figure for SUM149 is 0.127 µM; for SUM159 it is 0.398 µM.
On to SUM1315, for which the “GR50, 72 h” value was 0.29 µM.
Still for that read-out and setting: next, T47D: 0.0417 µM.

Compound in another assay: CCC1=CN=CN=C1N2CCN(CC2)CC3=NC4=C(N3)C=C(C=C4)C(F)(F)F
Turning to 184A1, the “GR50, 72 h” value was > 10 µM.
Turning to BT20, the “GR50, 72 h” value was > 10 µM.
For the cell line BT474, the “GR50, 72 h” value was > 10 µM.
For the cell line BT549, the “GR50, 72 h” value was > 10 µM.
On the same count and under the same terms, next, CAL51: > 10 µM; CAL120: > 10 µM.
Take CAL851: the “GR50, 72 h” value was > 10 µM.
In the case of CAMA1, the “GR50, 72 h” value was > 10 µM.
Turning to EFM19, the “GR50, 72 h” value is > 10 µM.
On the same count and under the same terms, the figure for EVSAT is > 10 µM.
On to HCC38, for which the “GR50, 72 h” value was > 10 µM.
Still for that read-out and setting: next, HCC70: > 10 µM; HCC202: > 10 µM.
Still for that read-out and setting: the figure for HCC1143 is > 10 µM.
On the same count and under the same terms, next, HCC1187: > 10 µM; HCC1395: > 10 µM; HCC1419: 5.28 µM.
On to HCC1428, for which the “GR50, 72 h” value was > 10 µM.
HCC1500: the “GR50, 72 h” value stood at 1.66 µM.
With HCC1569, the “GR50, 72 h” value was > 10 µM.
HCC1806: the “GR50, 72 h” value was > 10 µM.
The same measure, in the same setting: the figure for HCC1937 is > 10 µM; for HCC1954 it is > 10 µM; for HS578T it is > 10 µM.
As for HTERT_HME1, the “GR50, 72 h” value came out at 5.4 µM.
Take MCF7: the “GR50, 72 h” value was > 10 µM.
Still for that read-out and setting: next, MCF10A: > 10 µM; MCF12A: > 10 µM; MDAMB157: 3.78 µM.
For MDAMB175VII, the “GR50, 72 h” value amounted to 1.34 µM.
Regarding MDAMB231, the “GR50, 72 h” value is > 10 µM.
Same read-out and setting: next, MDAMB330: > 10 µM; MDAMB361: 7.23 µM.
For the cell line MDAMB415, the “GR50, 72 h” value amounted to 8.3 µM.
MDAMB436: the “GR50, 72 h” value amounted to 4.75 µM.
Regarding MDAMB453, the “GR50, 72 h” value amounted to 4.29 µM.
Consider MDAMB468, for which the “GR50, 72 h” value amounted to 4.17 µM.
Consider MGH312, for which the “GR50, 72 h” value worked out at 4.84 µM.
Consider PDX1258, for which the “GR50, 72 h” value is > 10 µM.
The same measure, in the same setting: the figure for PDX1328 is > 10 µM; for PDXHCI002 it is > 10 µM; for SKBR3 it is > 10 µM.
For the cell line SUM44PE, the “GR50, 72 h” value amounted to 6.53 µM.
Turning to SUM52PE, the “GR50, 72 h” value stood at 8 µM.
On to SUM149, for which the “GR50, 72 h” value is > 10 µM.
The same measure, in the same setting: the figure for SUM159 is > 10 µM.
Turning to SUM185PE, the “GR50, 72 h” value was determined as 3.03 µM.
On the same count and under the same terms, next, SUM190PT: 9.17 µM; SUM229PE: > 10 µM.
For SUM1315, the “GR50, 72 h” value is > 10 µM.
Turning to T47D, the “GR50, 72 h” value turned out to be 3.75 µM.
On the same count and under the same terms, the figure for UACC812 is 2.01 µM; for UACC893 it is 6.76 µM.
The same measure, in the same setting: the figure for ZR751 is > 10 µM; for ZR7530 it is 5.13 µM.

Compound in the next assay: CO[C@H]1C[C@@H]2CC[C@@H](C)[C@@](O)(O2)C(=O)C(=O)N2CCCC[C@H]2C(=O)O[C@H]([C@H](C)C[C@@H]2CC[C@@H](OCCO)[C@H](OC)C2)CC(=O)[C@H](C)/C=C(\C)[C@@H](O)[C@@H](OC)C(=O)[C@H](C)C[C@H](C)/C=C/C=C/C=C/1C [Everolimus]
On to 184A1, for which the “GR50, 72 h” value is > 10 µM.
On to BT549, for which the “GR50, 72 h” value was > 10 µM.
Regarding CAL51, the “GR50, 72 h” value was > 10 µM.
Take CAL120: the “GR50, 72 h” value is > 10 µM.
Consider CAL851, for which the “GR50, 72 h” value is 0.00155 µM.
On to EFM19, for which the “GR50, 72 h” value is < 0.001 µM.
As for HCC70, the “GR50, 72 h” value was found to be 0.245 µM.
On to HCC1143, for which the “GR50, 72 h” value is > 10 µM.
As to HCC1187, the “GR50, 72 h” value was > 10 µM.
For HCC1395, the “GR50, 72 h” value turned out to be 0.00256 µM.
As to HCC1428, the “GR50, 72 h” value turned out to be 0.031 µM.
The same measure, in the same setting: next, HCC1569: > 10 µM; HCC1806: > 10 µM.
The same measure, in the same setting: next, HCC1937: > 10 µM; HS578T: 0.00554 µM; MCF7: 0.00269 µM.
As for MCF10A, the “GR50, 72 h” value is > 10 µM.
The same measure, in the same setting: next, MCF12A: > 10 µM; MDAMB157: > 10 µM; MDAMB175VII: < 0.001 µM.
Take MDAMB231: the “GR50, 72 h” value is > 10 µM.
For MDAMB330, the “GR50, 72 h” value is < 0.001 µM.
Same read-out and setting: the figure for MDAMB361 is < 0.001 µM.
As to MDAMB436, the “GR50, 72 h” value was > 10 µM.
With MDAMB468, the “GR50, 72 h” value was > 10 µM.
The same measure, in the same setting: the figure for MGH312 is < 0.001 µM; for PDX1258 it is > 10 µM; for PDXHCI002 it is > 10 µM.
Regarding SKBR3, the “GR50, 72 h” value is < 0.001 µM.
As for SUM44PE, the “GR50, 72 h” value is < 0.001 µM.
Turning to SUM52PE, the “GR50, 72 h” value is > 10 µM.
For SUM149, the “GR50, 72 h” value was > 10 µM.
Regarding SUM159, the “GR50, 72 h” value was > 10 µM.
SUM185PE: the “GR50, 72 h” value was > 10 µM.
Same read-out and setting: the figure for SUM190PT is 0.00331 µM; for SUM229PE it is > 10 µM.
Regarding T47D, the “GR50, 72 h” value is < 0.001 µM.
The same measure, in the same setting: next, ZR751: < 0.001 µM.

Compound in a further assay: CNc1nc(-c2ccc3c(N)n[nH]c3c2)cc(N2C[C@@H](C(=O)NC3CCCCC3)CC[C@H]2C)n1
For the cell line 184A1, the “GR50, 72 h” value was > 10 µM.
Turning to BT20, the “GR50, 72 h” value was > 10 µM.
On to BT474, for which the “GR50, 72 h” value was 1.3 µM.
For BT549, the “GR50, 72 h” value is > 10 µM.
For the cell line CAL51, the “GR50, 72 h” value is > 10 µM.
For CAL120, the “GR50, 72 h” value was > 10 µM.
Still for that read-out and setting: next, CAL851: > 10 µM; CAMA1: > 10 µM; EFM19: 2.18 µM.
On the same count and under the same terms, the figure for EVSAT is 1.77 µM; for HCC38 it is > 10 µM; for HCC70 it is 1.27 µM.
As to HCC202, the “GR50, 72 h” value is 0.842 µM.
On the same count and under the same terms, the figure for HCC1143 is > 10 µM; for HCC1187 it is > 10 µM.
Consider HCC1395, for which the “GR50, 72 h” value was > 10 µM.
Turning to HCC1419, the “GR50, 72 h” value worked out at 7.64 µM.
As for HCC1569, the “GR50, 72 h” value is > 10 µM.
For HCC1806, the “GR50, 72 h” value is > 10 µM.
As to HCC1937, the “GR50, 72 h” value was > 10 µM.
The same measure, in the same setting: the figure for HCC1954 is > 10 µM.
Turning to HS578T, the “GR50, 72 h” value is > 10 µM.
HTERT_HME1: the “GR50, 72 h” value was > 10 µM.
Consider MCF7, for which the “GR50, 72 h” value came out at 3.23 µM.
In the case of MCF10A, the “GR50, 72 h” value was > 10 µM.
Turning to MCF10A (GM), the “GR50, 72 h” value is > 10 µM.
As for MCF12A, the “GR50, 72 h” value was > 10 µM.
In the case of MDAMB175VII, the “GR50, 72 h” value was 0.0785 µM.
